Active and inactive are the calls of the source. No rule for the calls is given here.
Molecular target: Acetylcholine receptor subunit alpha (Tetronarce californica) + Acetylcholine receptor subunit beta (Tetronarce californica) + Acetylcholine receptor subunit gamma (Tetronarce californica) + Acetylcholine receptor subunit delta (Tetronarce californica) (UniProt P02710+P02712+P02714+P02718)
Experiment: Torpedo nAChR binders, biochemical, Torpedo californica electric organ membranes, [125I]alpha-bungarotoxin (AID 743370)
Settings: [125I]alpha-bungarotoxin displacement

Sequence of Acetylcholine receptor subunit alpha (Tetronarce californica) + Acetylcholine receptor subunit beta (Tetronarce californica) + Acetylcholine receptor subunit gamma (Tetronarce californica) + Acetylcholine receptor subunit delta (Tetronarce californica) (P02710 whole entry, looked up): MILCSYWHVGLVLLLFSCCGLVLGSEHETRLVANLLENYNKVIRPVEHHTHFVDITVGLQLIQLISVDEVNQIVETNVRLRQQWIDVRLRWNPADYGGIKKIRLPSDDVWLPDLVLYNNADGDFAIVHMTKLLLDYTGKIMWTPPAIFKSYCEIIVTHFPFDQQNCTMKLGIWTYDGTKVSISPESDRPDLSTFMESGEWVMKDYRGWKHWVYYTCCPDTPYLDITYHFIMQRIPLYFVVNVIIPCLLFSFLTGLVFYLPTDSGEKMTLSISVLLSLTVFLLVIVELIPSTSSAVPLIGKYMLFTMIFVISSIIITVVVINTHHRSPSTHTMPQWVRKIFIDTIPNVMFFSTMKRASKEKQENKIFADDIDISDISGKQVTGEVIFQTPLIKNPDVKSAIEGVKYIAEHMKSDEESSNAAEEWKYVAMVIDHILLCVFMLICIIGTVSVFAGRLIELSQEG
Sequence of Acetylcholine receptor subunit alpha (Tetronarce californica) + Acetylcholine receptor subunit beta (Tetronarce californica) + Acetylcholine receptor subunit gamma (Tetronarce californica) + Acetylcholine receptor subunit delta (Tetronarce californica) (P02712 whole entry, looked up): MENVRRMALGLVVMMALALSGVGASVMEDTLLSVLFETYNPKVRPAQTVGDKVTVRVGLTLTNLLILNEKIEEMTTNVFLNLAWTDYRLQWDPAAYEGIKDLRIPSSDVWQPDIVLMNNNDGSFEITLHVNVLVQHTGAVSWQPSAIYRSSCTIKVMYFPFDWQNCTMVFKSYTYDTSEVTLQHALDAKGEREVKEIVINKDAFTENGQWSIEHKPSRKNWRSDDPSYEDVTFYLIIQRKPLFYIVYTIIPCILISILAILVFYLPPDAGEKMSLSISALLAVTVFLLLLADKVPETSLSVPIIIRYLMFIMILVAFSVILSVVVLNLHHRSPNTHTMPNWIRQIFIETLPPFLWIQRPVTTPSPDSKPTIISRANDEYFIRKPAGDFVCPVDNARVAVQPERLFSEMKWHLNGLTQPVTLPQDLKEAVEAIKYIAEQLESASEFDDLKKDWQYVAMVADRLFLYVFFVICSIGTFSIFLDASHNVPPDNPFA
Sequence of Acetylcholine receptor subunit alpha (Tetronarce californica) + Acetylcholine receptor subunit beta (Tetronarce californica) + Acetylcholine receptor subunit gamma (Tetronarce californica) + Acetylcholine receptor subunit delta (Tetronarce californica) (P02714 whole entry, looked up): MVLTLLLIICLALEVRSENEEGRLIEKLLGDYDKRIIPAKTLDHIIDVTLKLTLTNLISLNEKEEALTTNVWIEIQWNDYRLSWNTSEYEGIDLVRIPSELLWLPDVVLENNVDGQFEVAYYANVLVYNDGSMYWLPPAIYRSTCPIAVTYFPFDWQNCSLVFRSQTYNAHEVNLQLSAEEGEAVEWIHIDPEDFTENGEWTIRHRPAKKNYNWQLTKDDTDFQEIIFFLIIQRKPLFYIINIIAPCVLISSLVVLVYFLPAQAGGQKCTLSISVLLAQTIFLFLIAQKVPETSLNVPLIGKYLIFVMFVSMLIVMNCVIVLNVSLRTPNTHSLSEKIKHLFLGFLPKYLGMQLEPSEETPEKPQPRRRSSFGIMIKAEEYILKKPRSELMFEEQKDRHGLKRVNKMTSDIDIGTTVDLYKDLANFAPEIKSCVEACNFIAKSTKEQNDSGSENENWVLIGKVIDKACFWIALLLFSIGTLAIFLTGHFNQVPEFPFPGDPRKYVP
Sequence of Acetylcholine receptor subunit alpha (Tetronarce californica) + Acetylcholine receptor subunit beta (Tetronarce californica) + Acetylcholine receptor subunit gamma (Tetronarce californica) + Acetylcholine receptor subunit delta (Tetronarce californica) (P02718 whole entry, looked up): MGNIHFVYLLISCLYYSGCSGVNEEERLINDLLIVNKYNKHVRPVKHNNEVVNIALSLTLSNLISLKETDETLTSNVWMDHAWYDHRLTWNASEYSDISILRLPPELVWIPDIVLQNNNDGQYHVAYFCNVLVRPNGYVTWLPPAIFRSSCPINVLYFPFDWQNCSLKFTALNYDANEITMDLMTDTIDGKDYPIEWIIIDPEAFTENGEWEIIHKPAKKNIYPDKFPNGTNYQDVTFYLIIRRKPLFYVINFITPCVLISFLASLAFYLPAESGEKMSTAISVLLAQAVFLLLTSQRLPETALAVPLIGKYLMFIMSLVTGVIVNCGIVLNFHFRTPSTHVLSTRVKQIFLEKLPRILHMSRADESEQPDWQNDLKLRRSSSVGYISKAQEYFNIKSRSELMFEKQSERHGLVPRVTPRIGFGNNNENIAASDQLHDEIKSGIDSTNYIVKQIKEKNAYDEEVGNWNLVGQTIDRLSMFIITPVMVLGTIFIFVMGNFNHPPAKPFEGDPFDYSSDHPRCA

| Compound | Ki |
| --- | --- |
| NC1=N/C(=C2/CCNC(=O)c3[nH]ccc32)C(=O)N1 | inactive |
| COc1cc2c3c(ccnc3c1OC)NC=C2 | 34 µM |
| COc1cc(CCN)c2c(c1OC)SSSSS2 | 10 µM |
| COn1c(Br)c2c3c(cccc31)[C@H]1C[C@@H](C)CN(C)[C@@H]1C2 | 44 µM |
| CC/C=C/[C@@H]1CC[C@]2(C[C@H]3CC[C@H]4[C@@H](C(=O)OC(CC)CCCCCCCCCCCCC[C@@H]5O[C@](O)(CCN)[C@H](O)N(CCCN)C5=O)[C@@]5(CCC[C@H](C)O5)NC(=[N+]34)N2)O1 (stereo partly specified) | 8 µM |
| C[C@@H](N)[C@H](O)CCCCCCCC(=O)CCCCCCCCCCCCCC[C@@H](O[C@@H]1O[C@H](CO)[C@H](O)[C@H](O)[C@H]1O)[C@@H](C)N | 22 µM |

Reference: PubChem BioAssay AID743370
